Consider 2 compounds from EP0049801B1, “Sucrose-mutase, immobilized sucrose-mutase and use of this immobilized sucrose-mutase for the production of isomaltulose(6-O-alpha-D-glucopyranosido-D fructose)” (BAYER AG, priority 1980, dated 1982).

For this assay, the system named is Saccharose-Mutase. The assay can be described thus: Influence of ions on the enzymatic reaction. The assay is classed as biochemical, Protaminobacter rubrum. As for the experimental part: Das freie Enzym wird bei Temperaturen > 40 °C rasch inaktiviert. Die Reaktion wird durch CU- + Zn-Ionen stark gehemmt.

SMILES strings stand for the structures.

As to `OB(O)O` [Borat], the “Einfluß auf die enzymatische Aktivität” value is listed as “keinen Einfluß”.

In the case of `[Cu+2]` [CU], the “Einfluß auf die enzymatische Aktivität” value was “stark gehemmt”.
